pIC50: −log10 of the molar value.
Biological target: T1, full-length human PKCι (Homo sapiens, UniProt P41743)
T1 construct: Recombinant, full-length human PKCι expressed in Sf21 insect cells is also commercially available; purchased; host or cells: Sf21 insect cells
T1 sequence (P41743 1-596): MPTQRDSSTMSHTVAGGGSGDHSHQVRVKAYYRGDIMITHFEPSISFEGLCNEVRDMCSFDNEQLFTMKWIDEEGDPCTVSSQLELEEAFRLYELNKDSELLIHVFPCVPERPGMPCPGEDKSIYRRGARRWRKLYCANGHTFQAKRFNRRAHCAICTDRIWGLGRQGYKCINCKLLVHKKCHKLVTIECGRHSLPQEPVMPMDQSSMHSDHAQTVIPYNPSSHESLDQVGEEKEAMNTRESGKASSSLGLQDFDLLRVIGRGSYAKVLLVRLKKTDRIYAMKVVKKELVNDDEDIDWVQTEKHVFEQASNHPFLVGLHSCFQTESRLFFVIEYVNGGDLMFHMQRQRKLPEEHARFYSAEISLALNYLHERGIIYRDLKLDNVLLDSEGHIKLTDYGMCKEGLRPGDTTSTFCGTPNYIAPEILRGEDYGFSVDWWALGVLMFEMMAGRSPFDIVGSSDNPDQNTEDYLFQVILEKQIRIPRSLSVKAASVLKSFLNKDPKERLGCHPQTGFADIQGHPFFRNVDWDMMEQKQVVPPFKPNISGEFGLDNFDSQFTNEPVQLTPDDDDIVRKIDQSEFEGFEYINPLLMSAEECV
Experiment: PKCι IC50 IMAP assay, full-length PKCι at 150 μM ATP
Format: biochemical
Details: read-out: IC50 in IMAP assay against full length PKCi at 150 μM ATP
Method in brief: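 Recombinant full-length human PKCι (Sf21-expressed, typically 15 pM) phosphorylated 100 nM 5FAM-labelled PKCε pseudosubstrate-derived peptide with 150 μM ATP (5× KM^APP) in 18 mM tris-HCl pH7.5, 9 mM MgCl2, EGTA, DTT, 4% DMSO. After 60 min at room temperature, IMAP binding reagent was added for 2 h and fluorescence polarisation read.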

| SMILES | pIC50 |
| --- | --- |
| Cn1cc(-c2nccc3c(NC[C@@H](N)Cc4ccccc4)nc(-c4ccncc4)nc23)cn1 [Example 98, N-[(2S)-2-amino-3-phenylpropyl]-8-(1-methyl-1H-pyrazol-4-yl)-2-(pyridin-4-yl)-pyrido[3,4-d]-pyrimidin-4-amine] | 5.00 to 6.00 |
| CC(C)Cn1cc(-c2nccc3c(NC[C@@H](N)Cc4ccccc4)nc(-c4ccncc4)nc23)cn1 [Example 101, N-[(2S)-2-amino-3-phenylpropyl]-8-[1-(2-methyl-propyl)-1H-pyrazol-4-yl]-2-(pyridin-4-yl)-pyrido[3,4-d]-pyrimidin-4-amine] | 5.00 to 6.00 |
| Cn1nccc1-c1nccc2c(NC[C@@H](N)Cc3ccccc3)nc(-c3ccncc3)nc12 [Example 104, N-[(2S)-2-amino-3-phenylpropyl]-8-(1-methyl-1H-pyrazol-5-yl)-2-(pyridin-4-yl)-pyrido[3,4-d]-pyrimidin-4-amine] | 5.00 to 6.00 |
| N[C@H](CNc1nc(-c2ccncc2)nc2c(-c3cccc(-c4cccc(Cl)c4)c3)nccc12)Cc1ccccc1 [Example 106, N-[(2S)-2-amino-3-phenylpropyl]-8-[3-(3-chloro-phenyl)-phenyl]-2-(pyridin-4-yl)pyrido[3,4-d]pyrimidin-4-amine] | 5.00 to 6.00 |
| N[C@H](CNc1nc(-c2ccncc2)nc2c(-c3ccc(-c4ccc(Cl)cc4)cc3)nccc12)Cc1ccccc1 [Example 107, N-[(2S)-2-amino-3-phenylpropyl]-8-[4-(4-chloro-phenyl)-phenyl]-2-(pyridin-4-yl)pyrido[3,4-d]pyrimidin-4-amine] | 5.00 to 6.00 |
| Cc1noc(C)c1-c1nccc2c(NC[C@@H](N)Cc3ccccc3)nc(-c3ccncc3)nc12 [Example 112, N-[(2S)-2-amino-3-phenylpropyl]-8-(dimethyl-1,2-oxazol-4-yl)-2-(pyridin-4-yl)-pyrido[3,4-d]-pyrimidin-4-amine] | 4.40 to 5.00 |
| N[C@H](CNc1nc(-c2ccncc2)nc2c(-c3ccsc3)nccc12)Cc1ccccc1 [Example 114, N-[(2S)-2-amino-3-phenylpropyl]-2-(pyridin-4-yl)-8-(thiophen-3-yl)pyrido[3,4-d]pyrimidin-4-amine] | 6.00 to 7.00 |
| N[C@H](CNc1nc(-c2ccncc2)nc2c(-c3ccc4[nH]cnc4c3)nccc12)Cc1ccccc1 [Example 116, N-[(2S)-2-amino-3-phenylpropyl]-8-(1H-1,3-benzodiazol-5-yl)-2-(pyridin-4-yl)pyrido[3,4-d]pyrimidin-4-amine] | 5.00 to 6.00 |
| CCOc1cccc(-c2nccc3c(NC[C@@H](N)Cc4ccccc4)nc(-c4ccncc4)nc23)c1 [Example 117, N-[(2S)-2-amino-3-phenylpropyl]-8-(3-ethoxy-phenyl)-2-(pyridin-4-yl)-pyrido[3,4-d]-pyrimidin-4-amine] | 5.00 to 6.00 |
| Cc1ccccc1-c1nccc2c(NC[C@@H](N)Cc3ccccc3)nc(-c3ccncc3)nc12 [Example 118, N-[(2S)-2-amino-3-phenylpropyl]-8-(2-methyl-phenyl)-2-(pyridin-4-yl)-pyrido[3,4-d]-pyrimidin-4-amine] | 5.00 to 6.00 |
| Cc1cccc(-c2nccc3c(NC[C@@H](N)Cc4ccccc4)nc(-c4ccncc4)nc23)c1 [Example 119, N-[(2S)-2-amino-3-phenylpropyl]-8-(3-methyl-phenyl)-2-(pyridin-4-yl)-pyrido[3,4-d]-pyrimidin-4-amine] | 5.00 to 6.00 |
| N[C@H](CNc1nc(-c2ccncc2)nc2c(-c3cccc(-c4ccn[nH]4)c3)nccc12)Cc1ccccc1 [Example 120, N-[(2S)-2-amino-3-phenylpropyl]-8-[3-(1H-pyrazol-5-yl)phenyl]-2-(pyridin-4-yl)pyrido[3,4-d]pyrimidin-4-amine] | 5.00 to 6.00 |

Continued, values first:

| pIC50 | SMILES |
| --- | --- |
| 6.00 to 7.00 | COc1ccc(-c2nccc3c(NC[C@@H](N)Cc4ccccc4)nc(-c4ccncc4)nc23)cc1 [Example 95, N-[(2S)-2-amino-3-phenylpropyl]-8-(4-methoxy-phenyl)-2-(pyridin-4-yl)-pyrido[3,4-d]-pyrimidin-4-amine] |
| 6.00 to 7.00 | N[C@H](CNc1nc(-c2ccncc2)nc2c(-c3ccccc3Cl)nccc12)Cc1ccccc1 [Example 96, N-[(2S)-2-amino-3-phenylpropyl]-8-(2-chlorophenyl)-2-(pyridin-4-yl)pyrido[3,4-d]pyrimidin-4-amine] |
| 6.00 to 7.00 | N[C@H](CNc1nc(-c2ccncc2)nc2c(-c3ccc4occc4c3)nccc12)Cc1ccccc1 [Example 97, N-[(2S)-2-amino-3-phenylpropyl]-8-(1-benzofuran-5-yl)-2-(pyridin-4-yl)-pyrido[3,4-d]-pyrimidin-4-amine] |
| 6.00 to 7.00 | N[C@H](CNc1nc(-c2ccncc2)nc2c(-c3cccnc3)nccc12)Cc1ccccc1 [Example 99, N-[(2S)-2-amino-3-phenylpropyl]-8-(pyridin-3-yl)-2-(pyridin-4-yl)pyrido[3,4-d]pyrimidin-4-amine] |
| 6.00 to 7.00 | N[C@H](CNc1nc(-c2ccncc2)nc2c(-c3ccncc3)nccc12)Cc1ccccc1 [Example 100, N-[(2S)-2-amino-3-phenylpropyl]-2,8-bis(pyridin-4-yl)pyrido[3,4-d]pyrimidin-4-amine] |
| 6.00 to 7.00 | N[C@H](CNc1nc(-c2ccncc2)nc2c(-c3cccc(Cl)c3)nccc12)Cc1ccccc1 [Example 102, N-[(2S)-2-amino-3-phenylpropyl]-8-(3-chloro-phenyl)-2-(pyridin-4-yl)-pyrido[3,4-d]-pyrimidin-4-amine] |
| 6.00 to 7.00 | N[C@H](CNc1nc(-c2ccncc2)nc2c(-c3ccc(Cl)cc3)nccc12)Cc1ccccc1 [Example 103, N-[(2S)-2-amino-3-phenylpropyl]-8-(4-chloro-phenyl)-2-(pyridin-4-yl)-pyrido[3,4-d]-pyrimidin-4-amine] |
| > 7.00 | N[C@H](CNc1nc(-c2ccncc2)nc2c(-c3ccccc3O)nccc12)Cc1ccccc1 [Example 105, 2-(4-{[(2S)-2-amino-3-phenylpropyl]-amino}-2-(pyridin-4-yl)-pyrido[3,4-d]-pyrimidin-8-yl)phenol] |
| 6.00 to 7.00 | N[C@H](CNc1nc(-c2ccncc2)nc2c(-c3cncnc3)nccc12)Cc1ccccc1 [Example 108, N-[(2S)-2-amino-3-phenylpropyl]-2-(pyridin-4-yl)-8-(pyrimidin-5-yl)pyrido[3,4-d]pyrimidin-4-amine] |
| 6.00 to 7.00 | Nc1cccc(-c2nccc3c(NC[C@@H](N)Cc4ccccc4)nc(-c4ccncc4)nc23)c1 [Example 109, N-[(2S)-2-amino-3-phenylpropyl]-8-(3-aminophenyl)-2-(pyridin-4-yl)pyrido[3,4-d]pyrimidin-4-amine] |
| 6.00 to 7.00 | N[C@H](CNc1nc(-c2ccncc2)nc2c(-c3cccc4ccoc34)nccc12)Cc1ccccc1 [Example 110, N-[(2S)-2-amino-3-phenylpropyl]-8-(1-benzofuran-7-yl)-2-(pyridin-4-yl)pyrido[3,4-d]pyrimidin-4-amine] |
| 6.00 to 7.00 | Cc1ccc(-c2nccc3c(NC[C@@H](N)Cc4ccccc4)nc(-c4ccncc4)nc23)s1 [Example 111, N-[(2S)-2-amino-3-phenylpropyl]-8-(5-methyl-thiophen-2-yl)-2-(pyridin-4-yl)pyrido[3,4-d]pyrimidin-4-amine] |
| > 7.00 | N[C@H](CNc1nc(-c2ccncc2)nc2c(-c3ccco3)nccc12)Cc1ccccc1 [Example 115, N-[(2S)-2-amino-3-phenylpropyl]-8-(furan-2-yl)-2-(pyridin-4-yl)pyrido[3,4-d]pyrimidin-4-amine] |
